Laboratory results reported in PubChem BioAssay (NCI).
Where “and” joins values, the source holds several entries; their conditions need not be identical. Equal values may be shown once.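 How tested: cells in 96-well plates exposed to compound for 48 hours at five concentrations. GI50 = concentration required for 50% inhibition of growth. TGI: concentration producing complete growth inhibition.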

How the values were obtained:
Experiment in all cases: inhibition of tumour cell growth, NCI panel, 48 h
HCT-15 colon = tested on: HCT-15 colon
MALME-3M melanoma = tested on: MALME-3M melanoma
HOP-62 NSCLC = tested on: HOP-62 NSCLC
OVCAR-8 ovarian = tested on: OVCAR-8 ovarian
SF-539 CNS = tested on: SF-539 CNS
A549 NSCLC = tested on: A549 NSCLC
EKVX NSCLC = tested on: EKVX NSCLC
UACC-62 melanoma = tested on: UACC-62 melanoma
HS 578T breast = tested on: HS 578T breast
OVCAR-5 ovarian = tested on: OVCAR-5 ovarian

| Compound | TGI (HCT-15 colon) | TGI (MALME-3M melanoma) | GI50 (HOP-62 NSCLC) | TGI (HOP-62 NSCLC) | TGI (OVCAR-8 ovarian) | GI50 (SF-539 CNS) | TGI (SF-539 CNS) | TGI (A549 NSCLC) | TGI (EKVX NSCLC) | GI50 (UACC-62 melanoma) | TGI (UACC-62 melanoma) | GI50 (HS 578T breast) | TGI (HS 578T breast) | TGI (OVCAR-5 ovarian) | GI50 (HCT-15 colon) | GI50 (MALME-3M melanoma) | GI50 (OVCAR-8 ovarian) | GI50 (A549 NSCLC) | GI50 (EKVX NSCLC) | GI50 (OVCAR-5 ovarian) |
| --- | --- | --- | --- | --- | --- | --- | --- | --- | --- | --- | --- | --- | --- | --- | --- | --- | --- | --- | --- | --- |
| CC(=O)OCC1OC(n2c3c(cc(C#N)c2=S)CCCC3)C(OC(C)=O)C(OC(C)=O)C1OC(C)=O (stereo not drawn) | > 100 µM | > 100 µM | 83.3 µM and 19.9 µM | > 100 µM and 51.5 µM | > 100 µM | > 100 µM and 48.1 µM | > 100 µM | > 100 µM | > 100 µM | > 100 µM and 26.5 µM | > 100 µM | > 100 µM and 25.5 µM | > 100 µM | > 100 µM | – | – | – | – | – | – |
| Clc1ccc(CN2CCCN(Cc3ccc(Cl)cc3)C2c2cc3ccccc3c3ccccc23)cc1 | > 100 µM | 37.6 µM | – | > 100 µM | > 100 µM | – | > 100 µM | > 100 µM | > 100 µM | – | 36.7 µM | – | > 100 µM | > 100 µM | – | – | – | – | – | – |
| C[C@@H]1CCc2ncc(F)cc2[C@H]2CCCN2c2ccn3ncc(c3n2)C(=O)N1 | > 100 µM | > 100 µM | 60 µM | > 100 µM | > 100 µM | 54.6 µM | > 100 µM | > 100 µM | > 100 µM | 69.5 µM | > 100 µM | 24.5 µM | > 100 µM | > 100 µM | 77.1 µM | > 100 µM | > 100 µM | 69.3 µM | 48.8 µM | > 100 µM |
| C[As](C)SC1OCC(O)C(O)C1O (stereo not drawn) | 0.611 µM | 0.366 µM | 2.15 µM | 9.52 µM | 2.82 µM | 0.111 µM | 0.595 µM | > 33.7 µM | 6.23 µM | 0.195 µM | 0.556 µM | 0.276 µM | 0.718 µM | 0.71 µM | 0.107 µM | 0.069 µM | 0.284 µM | 1.63 µM | 1.29 µM | 0.208 µM |
| O=CN1N=C(c2cccc(Nc3ccnc4cc(Cl)ccc34)c2)CC1c1ccc(Cl)cc1 (stereo not drawn) | > 100 µM | > 100 µM | 1.91 µM | > 100 µM | > 100 µM | 3.78 µM | 69.5 µM | > 100 µM | > 100 µM | 1.63 µM | > 100 µM | 1.97 µM | > 100 µM | > 100 µM | 0.903 µM | 1.63 µM | 3.8 µM | 0.941 µM | > 100 µM | > 100 µM |
| COc1cc(-c2nn(-c3cccc(NC(=O)CCNc4ccc(N5CCOCC5)cc4)c3)cc2-c2ccncc2)ccc1Cl | > 100 µM | 6.93 µM | 3.48 µM | 22.3 µM | 16.1 µM | 2.91 µM | 19.4 µM | 25.1 µM | > 100 µM | 1.88 µM | 4.89 µM | 3.27 µM | > 100 µM | > 100 µM | 2.35 µM | 2.31 µM | 2.92 µM | 1.46 µM | 3.07 µM | 3.43 µM |
| Nn1c(-c2ccc(Cl)cc2)nc2c(-c3ccc(Cl)cc3)nc3ccc(Cl)cc3c2c1=O | > 100 µM | 65.4 µM | 22.4 µM | 57.7 µM | 95.2 µM | 10.4 µM | 36.8 µM | > 100 µM | > 100 µM | 32.2 µM | > 100 µM | 12.1 µM | 85 µM | > 100 µM | > 100 µM | 21.3 µM | 7.58 µM | 4.8 µM | 5.86 µM | > 100 µM |
| O=c1[nH]cnc2n[nH]nc12 | > 100 µM | 46.4 µM | – | > 100 µM | > 100 µM | – | 23.9 µM | > 100 µM | > 100 µM | – | 6.8 µM | 6.11 µM | > 100 µM | > 100 µM | – | – | – | – | – | – |
| COCC(C(=O)OC1C/C=C/C=C/C(=O)OC(C(C)C(O)C(C)CCC(OC(=O)C(C)N(C)C)C(C)C(OC(C)=O)C(C)/C=C/N(C)C=O)C/C=C/C(OC)CC(C)C/C=C(\C)C(OC)CCC(C)C(O)C1C)N(C)C (stereo not drawn) | 0.00194 µM | 0.0225 µM | < 0.0001 µM | 0.0013 µM | – | < 0.0001 µM | < 0.0001 µM | 0.156 µM | 0.0275 µM | < 0.0001 µM | 0.000461 µM | < 0.0001 µM | < 0.0001 µM | 0.162 µM | < 0.0001 µM | < 0.0001 µM | < 0.0001 µM | < 0.0001 µM | < 0.0001 µM | < 0.0001 µM |
| N#[N+]c1ccc(Nc2ccccc2)cc1 | > 50 µg/mL | > 50 µg/mL | > 50 µg/mL | > 50 µg/mL | > 50 µg/mL | > 50 µg/mL | > 50 µg/mL | > 50 µg/mL | > 50 µg/mL | > 50 µg/mL | > 50 µg/mL | > 50 µg/mL | > 50 µg/mL | > 50 µg/mL | > 50 µg/mL | > 50 µg/mL | > 50 µg/mL | > 50 µg/mL | > 50 µg/mL | > 50 µg/mL |
| CCCCCC[C@H]1C(=O)O[C@H](C)[C@H](NC(=O)c2cccc(NC=O)c2OC)C(=O)O[C@@H](C)[C@@H]1OC(=O)CCC (tested in a mixture with another compound) | 33.3 µM | 41.2 µM | 16.9 µM | 40.1 µM | 33.4 µM | 15.5 µM | 33.3 µM | 22.8 µM | 24.2 µM | 6.54 µM | 21.2 µM | 13.1 µM | 38.6 µM | 47.6 µM | 11.1 µM | 15.3 µM | 12.1 µM | 7.24 µM | 6 µM | 20.9 µM |
| COc1ccccc1C(=O)N(Cc1ccccc1)c1ccc(Cl)c(C(=O)OC(C)C)c1 | > 100 µM | 85.9 µM | – | 85.8 µM | > 100 µM | – | > 100 µM | > 100 µM | > 87.8 µM | – | > 100 µM | – | > 100 µM | > 100 µM | – | – | – | – | – | – |
| Cc1ccc(OC(=O)N2C/C(=C\c3ccccc3)C(=O)/C(=C/c3ccccc3)C2)cc1 | > 100 µM | > 100 µM | – | 38.7 µM | 54.5 µM | – | 66.2 µM | > 100 µM | > 100 µM | – | 59 µM | – | 76.5 µM | > 100 µM | – | – | – | – | – | – |
| CNC(=O)OCc1nc(SC)n(C)c1COC(=O)NC | 410 µM | 253 µM | – | 92.2 µM | 472 µM | – | 299 µM | 836 µM | 492 µM | – | 103 µM | – | 438 µM | 451 µM | – | – | – | – | – | – |
| Cn1c(=O)c2c(nc(N/N=C/c3ccccc3C(=O)O)n2C)n(C)c1=O | > 100 µM | > 100 µM | – | > 100 µM | > 100 µM | – | > 100 µM | > 100 µM | > 100 µM | – | > 100 µM | – | > 100 µM | > 100 µM | – | – | – | – | – | – |
| CC1(C)N=C(N)N=C(N)N1c1cccc(CCc2ccccc2)c1 | > 100 µM | > 68.8 µM | 1.29 µM | > 100 µM | > 100 µM | 1.37 µM | > 100 µM | > 100 µM | > 100 µM | 0.49 µM | 20.4 µM | 22.4 µM | > 100 µM | > 100 µM | 45.6 µM | 1.04 µM | 0.634 µM | 0.125 µM | 1.1 µM | – |
| CC(O)[C@H](NC(=O)N[C@@H](CC(N)=O)c1nc(N2CCNCC2)no1)C(=O)O (stereo partly drawn) | > 100 µM | > 100 µM | > 100 µM | > 100 µM | > 100 µM | > 100 µM | > 100 µM | > 100 µM | > 100 µM | > 100 µM | > 100 µM | > 100 µM | > 100 µM | > 100 µM | > 100 µM | > 100 µM | > 100 µM | > 100 µM | > 100 µM | > 100 µM |
| O=C(O)c1ccccc1NCn1c(=S)sc2ccccc21 | > 100 µM | > 100 µM | – | > 100 µM | > 100 µM | – | 48.9 µM | > 100 µM | > 100 µM | – | > 100 µM | – | > 100 µM | > 100 µM | – | – | – | – | – | – |
| OCC(O)C(O)C(O)C(O)c1nnc2c(-c3ccccc3)nc3ccccc3n12 (stereo not drawn) | > 100 µM | > 100 µM | > 100 µM | > 100 µM | > 100 µM | > 100 µM | > 100 µM | > 100 µM | > 100 µM | > 100 µM | > 100 µM | 57.9 µM | > 100 µM | > 100 µM | 53.1 µM | 38.7 µM | 53.5 µM | > 100 µM | > 100 µM | > 100 µM |
